The term IC50 denotes the midpoint of a concentration-inhibition curve. A word on the inhibition: it is the share of the control response that was lost under treatment.

Activity calls are given as the source filed them. No cut-off for these calls is given here.

Test [1] relates to NCI/ADR-RES. Kind of test: Growth inhibition of human MCF7/ADR cells after 48 hrs by MTT assay. The test is classed as functional, cell-based. (In general: Formazan colour is commonly taken as a measure of viable cells.)
Test [2] can be described thus: Growth inhibition of human MDA-MB-231/ADR cells after 48 hrs by MTT assay. The test is classed as functional. The following applies: MDA-MB-231, 48 h.
Test [3] can be described thus: Resistance factor, ratio of IC50 for human MCF7/ADR cells to IC50 for human MCF7 cells. It is filed as functional.
The subject of test [4] is MCF7. The test is described as follows: Growth inhibition of human MCF7 cells after 48 hrs by MTT assay. To be noted: MCF7, 48 h. It is filed as functional, cell-based.
The nature of test [5]: Resistance factor, ratio of IC50 for human MDA-MB-231/ADR cells to IC50 for human MDA-MB-231 cells. The test is classed as functional.
For test [6], the species on record is Sus scrofa. Kind of test: Inhibition of porcine MAP-rich tubulin polymerization at 20 uM measured every 30 secs for 30 mins.
Test [7] concerns NCI/ADR-RES. The test is described as follows: Induction of apoptosis in human MCF7/ADR cells at 12 uM after 24 hrs by Annexin V-FITC/PI double staining based flow cytometry relative to control. It is filed as functional. In general terms: In flow cytometry, cells or beads pass a laser one at a time.
For test [8], the target named is T1, Tubulin (Homo sapiens) (UniProt P68371+Q9H4B7+P0DPH7+P68366+Q13509+Q71U36+P04350+Q3ZCM7+P07437+P68363+Q9BQE3+Q6PEY2+Q13885+Q9BVA1+Q9BUF5). Kind of test: Displacement of [3H]colchicine from tubulin (unknown origin) at 5 uM after 10 mins relative to control. The test is classed as protein-complex assay.
The subject of test [9] is NCI/ADR-RES. The test is described as follows: Induction of apoptosis in human MCF7/ADR cells at 6 uM after 24 hrs by Annexin V-FITC/PI double staining based flow cytometry relative to control. It is filed as functional.
For test [10], the species on record is Sus scrofa. The test is described as follows: Inhibition of porcine MAP-rich tubulin polymerization measured every 30 secs for 30 mins.
The target of a further test is Tubulin. Kind of test: Inhibition of tubulin (unknown origin) polymerization preincubated for 15 mins followed by GTP addition measured for 20 mins by turbidimetric analysis. The test is classed as protein-complex assay, Homo sapiens.
In test [11] the test system is NCI/ADR-RES. The test is described as follows: Downregulation of P-gp protein expression level in human MCF7/ADR cells assessed as P-gp protein level up to 24 uM by Western blot analysis (reference value: 0.67). The test is classed as functional. In general terms: In western blotting, separated proteins are transferred to a membrane and probed.
The test system of test [12] is NCI/ADR-RES. The test is described as follows: Induction of apoptosis in human MCF7/ADR cells at 24 uM after 24 hrs by Annexin V-FITC/PI double staining based flow cytometry relative to control. The test is classed as functional.
In test [13] the test system is MCF7. The test is described as follows: Induction of apoptosis in human MCF7 cells at 12 uM after 24 hrs by Annexin V-FITC/PI double staining based flow cytometry relative to control. It is filed as functional.
For test [14], the species on record is Homo sapiens. Kind of test: Inhibition of P-gp in human MCF7/ADR cells assessed as increase in intracellular Rh123 accumulation at 24 uM after 2 hrs by flow cytometry. It is filed as cell-based.
Test [15] relates to MCF7. Kind of test: Downregulation of P-gp protein expression level in human MCF7 cells assessed as P-gp protein level up to 24 uM by Western blot analysis. The test is classed as functional.
Test [16] deals with NCI/ADR-RES. Kind of test: Downregulation of P-gp expression level in human MCF7/ADR cells assessed as P-gp mRNA level up to 24 uM by qRT-PCR analysis (reference value: 17.5). The test is classed as functional.
The subject of test [17] is NCI/ADR-RES. Kind of test: Downregulation of P-gp mRNA level in human MCF7/ADR cells by qRT-PCR analysis. The test is classed as functional, cell-based.
The subject of the next test is MDA-MB-231. Kind of test: Growth inhibition of human MDA-MB-231 cells after 48 hrs by MTT assay. The test is classed as functional, cell-based. To be noted: MDA-MB-231, 48 h.
For test [18], the system named is MCF7. The test is described as follows: Induction of apoptosis in human MCF7 cells at 24 uM after 24 hrs by Annexin V-FITC/PI double staining based flow cytometry relative to control. It is filed as functional.
Test [19] relates to MCF7. Kind of test: Induction of apoptosis in human MCF7 cells at 6 uM after 24 hrs by Annexin V-FITC/PI double staining based flow cytometry relative to control. It is filed as functional.
The target in test [20] is T1, Tubulin (Homo sapiens). Kind of test: Displacement of [3H]colchicine from tubulin (unknown origin) at 1 uM after 10 mins relative to control. The test is classed as protein-complex assay.
The species named for test [21] is Homo sapiens. The following applies: 10 uM.
Description: Inhibition of P-gp in human MCF7/ADR cells assessed as increase in intracellular Rh123 accumulation at 10 uM after 2 hrs by flow cytometry

With `COc1cccc2c1C(=O)c1c(O)c3c(c(O)c1C2=O)C[C@@](O)(C(=O)CO)C[C@@H]3O[C@H]1C[C@H](N)[C@H](O)[C@H](C)O1.Cl` [DOXORUBICIN HYDROCHLORIDE], the IC50 with NCI/ADR-RES [1] was found to be 50.7 µM; in [2] it was 49.8 µM; in the test with MCF7 [4], 1.72 µM. Moreover, the “Ratio IC50” value in test [3] stood at 29.5; in [5] it was 22.72.
As to `COc1cc2c(c(OC)c1OC)-c1ccc(OC)c(=O)cc1[C@@H](NC(C)=O)CC2`, in the test listed under Sus scrofa [6], the inhibition entry was “Active”.
For `COc1cc2nc3occc3c(OC)c2cc1OC` [KOKUSAGININE], the IC50 turned out to be 4.62 µM in the test with NCI/ADR-RES [1]; 10.2 µM in test [2]; 0.82 µM against Tubulin; 7.23 µM in the test on MCF7 [4]; 9.01 µM with MDA-MB-231. In addition, the Activity is 45.35% in the test with NCI/ADR-RES [7]; 28.16% in the test with NCI/ADR-RES [9]; 0.19 in the test with NCI/ADR-RES [11]; 63.29% in the test on NCI/ADR-RES [12]; 21.63% with MCF7 [13]; 0.02 - 0.09 with MCF7 [15]. Also, the Activity in the test with NCI/ADR-RES [16] is 6.4; in the test on NCI/ADR-RES [17] it was “Dose-dependent effect”; in the test with MCF7 [18], 39.52%; with MCF7 [19], 12.08%. Besides, the figures for the inhibition on Tubulin (Homo sapiens) [8], in the test listed under Sus scrofa [10] and on Tubulin (Homo sapiens) [20] were 98%, “Dose-dependent effect” and 92%, respectively. Moreover, the “Ratio IC50” value in test [3] was found to be 0.64; in test [5] it was 1.13. For the same compound, in the test listed under Homo sapiens [14], the inhibition entry was “Active”.
On to `COc1ccc(CCN(C)CCCC(C#N)(c2ccc(OC)c(OC)c2)C(C)C)cc1OC` (stereo not drawn), for which the inhibition entry in the test listed under Homo sapiens [21] was “Active”.

These data come from ChEMBL document CHEMBL4118272, “The inhibitory effect of kokusaginine on the growth of human breast cancer cells and MDR-resistant cells is mediated by the inhibition of tubulin assembly” (Bioorg Med Chem Lett, 2018).
